Tests used:
Cyclin E/CDK2 = biological target: T1, Cyclin E/CDK2 (Homo sapiens, UniProt P24941); test: CDK2 Flash Plate Assay (Rb phosphorylation, 33P-ATP); type: biochemical
T1 construct: made in house; host or cells: insect cells
Method: To determine inhibition of CDK2 activity, purified recombinant retinoblastoma (Rb) protein was coated on 96 well FlashPlates (New England Nuclear, Boston, Mass.). […] Recombinant active human Cyclin E/CDK2 complexes were partially purified from extracts of insect cells. […] Plates were incubated for 25 minutes at room temperature with shaking, then washed and counted in the Topcount scintillation counter (Packard Instrument Co., Downers Grove, Ill.). Dilutions of test compounds were tested in duplicate in each assay. The percent inhibition of Rb phosphorylation, which is a measure of the inhibition of CDK2 activity, was determined according to the following formula:
[formula] where “test compound” refers to the average counts per minute of the test duplicates, “nonspecific” refers to the average counts per minute when no Cyclin E/CDK2 was added, and “total” refers to the average counts per minute when no compound was added.

FGF-stimulated HUVEC = FGF-stimulated HUVEC proliferation assay (BrdU); type: cell-based; conditions: Homo sapiens, BrdU labeling, FGF 5 ng per mL, 24 hour exposure, read-out: Antiproliferative Activity FGF-stimulated HUVEC Assay IC50
Method: The antiproliferative activity of test compounds of this invention in cell-based assays was evaluated by BrdU assay using the BrdU kit (Roche Biochemicals 1-647-229). Human umbilical vein endothelial cells (HUVEC, Clonetics CC-2519) were cultured in EGM-2 (Clonetics CC-3162) medium and seeded at 10000 cells per well in a volume of 200 μL of EGM-2 (Clonetics CC-3162) media in a 96-well flat bottom plates (Costar 3595) overnight. After 24 hours of growth at 37° C. with 5% CO2, the incubation media was removed slowly by aspiration, and the content of each well was washed with 300 μL pre-warmed EBM-2 (Clonetics CC-3156) containing 50 μg per mL of gentamycin and 50 ng per mL of amphotercin-B (Clonetics CC-4083). Subsequently, the remaining media was again aspirated and replaced with 160 μL per well of serum starvation media (EBM-2 supplemented with 1% heat inactivated FBS (Clonetics CC-4102), 50 μg per mL gentamycin and 50 ng per mL of amphotercin-B (Clonetics CC-4083), 10 units per mL of Wyeth-Ayerst heparin (NDC0641-0391-25), and 2 mM L-glutamine (GIBCO 25030-081). After serum starving the cells for 24 hours, 20 μL of test compound at 10× test concentration in serum starvation medium with 2.5% DMSO was added to the appropriate wells. The control wells contained 20 μL of serum starvation medium with 2.5% DMSO. Plates were returned to the incubator for 2 hours. After pre-incubating the cells with the test compounds for 2 hours, 20 μL of growth factors at 10X assay concentration diluted in serum starvation media, FGF at 50 ng per mL, or VEGF (R&D systems 293-VE) at 200 ng per mL were added. The final concentration of FGF in the assay was 5 ng per mL and the final concentration of VEGF in the assays was 20 ng per mL. The growth factor free control wells had 20 μL per well of serum starvation media with the same amount of BSA as the wells with growth factors. The plates were returned to the incubator for an additional 22 hours.
After 24 hour exposure to the test compounds, the cells were labeled with BrdU (Roche Biochemicals 1-647-229), by adding 20 μL per well of BrdU labeling reagent that has been diluted (1:100) in serum starvation medium. The plates were then returned to the incubator for 4 hours. The labeling medium was removed by draining the medium onto paper towels. […] The plates were read at 450 nm with reference wavelength of 650 nm. The percent inhibition for each test compound was calculated by subtracting the absorbency of the blank (no cells) wells from all wells, then subtracting the division of the average absorbency of each test duplicate by the average of the controls from 1. […] The IC50 is determined from the linear regression of a plot of the logarithm of the concentration versus percent inhibition.

H460a = H460a cell-based MTT proliferation assay; conditions: 120 h, 5 days post addition of test compound, read-out: Antiproliferative Activity H460a Assay IC90
Method: The H460a cell line was purchased from (ATCC; Rockville, Md.) and was grown in the medium recommended by ATCC. For analysis of the effect of the test compounds on growth of these cells, the cells were plated at 150 cells per well in a 96-well tissue culture plate, and were incubated overnight at 37° C. with 5% CO2. The next day, the test compounds were dissolved in 100% dimethyl sulfoxide (DMSO) to yield a 10 mM stock solution. Each compound was diluted with sterile medium to 1 mM in a sufficient quantity to yield a final concentration of 120 μM. The compounds were then serially diluted in medium with 1.2% DMSO. One-fourth final volume of the diluted compounds was transferred to 96 well plates. Test compounds were assayed in duplicate. […] The plates were returned to the incubator, and 5 days post addition of test compound, were analyzed as described below. […] Absorbencies were read in a microtiter plate reader (Molecular Dynamics) at a wavelength of 570 nm with a 650 nm reference. Percent inhibition was calculated by subtracting the absorbance of the blank (no cell) wells from all wells, then subtracting the division of the average absorbance of each test duplicate by the average of the controls from 1.00. Inhibitory concentrations (IC50) were determined from the linear regression of a plot of the logarithm of the concentration versus the percent inhibition.

MDA-MB-435 = MDA-MB-435 cell-based MTT proliferation assay; conditions: Homo sapiens, MDA-MB-435, 120 h, 5 days post addition of test compound, read-out: IC50 for inhibition in the MDA-MB-435 cell-based assay
Method: (§1) The estrogen receptor negative epithelial breast carcinoma line (MDA-MB-435) was purchased from American Type Cell Culture Collection (ATCC; Rockville, Md.) and was grown in the medium recommended by ATCC. For analysis of the effect of the test compounds on growth of these cells, the cells were plated at 2000 cells per well in a 96-well tissue culture plate, and were incubated overnight at 37° C. with 5% CO2. The next day, the test compounds were dissolved in 100% dimethyl sulfoxide (DMSO) to yield a 10 mM stock solution. Each compound was diluted with sterile medium to 1 mM in a sufficient quantity to yield a final concentration of 120 μM. The compounds were then serially diluted in medium with 1.2% DMSO. […] The plates were returned to the incubator, and 5 days post addition of test compound, were analyzed as described below.
(§2) 3-(4,5-Dimethylthiazole-2-yl)-2,5-diphenyl-2H-tetrazolium bromide (thiazolyl blue; MTT) was added to each well to yield a final concentration of 1 mg/mL. […] Absorbencies were read in a microtiter plate reader (Molecular Dynamics) at a wavelength of 570 nm with a 650 nm reference. Percent inhibition was calculated by subtracting the absorbance of the blank (no cell) wells from all wells, then subtracting the division of the average absorbance of each test duplicate by the average of the controls from 1.00. […]

SW480 = SW480 (colon) cell-based MTT proliferation assay; conditions: Homo sapiens, SW480, 144 h, 6 days post addition of the test compound, read-out: IC50 for inhibition in the SW480 (colon) based assay
Method: as §1, §2

| SMILES | IC50 (Cyclin E/CDK2) [nM] | IC50 (FGF-stimulated HUVEC) [nM] | IC90 (H460a) [nM] | IC50 (MDA-MB-435) [nM] | IC50 (SW480) [nM] |
| --- | --- | --- | --- | --- | --- |
| COc1cc2c(cc1C#N)C(c1ccccc1Cl)=Nc1c(n[nH]c1C)N2 [IVb, 5-(2-chlorophenyl)-7-cyano-1,2-dihydro-8-methoxy-3-methyl-pyrazolo[3,4-b][1,4]benzodiazepine] | 184 | 5 | 118 |  |  |
| Cc1cc2c(cc1C)C(c1ccccc1Cl)=NCC(=O)N2 [Iw, 5-(2-chlorophenyl)-1,3-dihydro-7,8-dimethyl-2H-1,4-benzodiazepin-2-one] |  |  |  | 950 | 950 |

From patent US7524840B2, “7,8-disubstituted pyrazolobenzodiazepines” (Hoffmann-La Roche Inc., priority 2004, dated 2009)
